Assays:
[1] = system: DLD1/UDG−/− cells; assay: Colony survival (clonogenic) assay, UDG−/− cells; type: cell-based, human
Description: Recombinant virus was grown in 293T cells and subsequently used to infect DLD1 cells. Selection of positively transfected clones was achieved by the addition of G418 to the culture medium. A second infection of transfected clones with Cre-recombinase adenovirus caused excision of the neomycin resistance cassette. Dflag cell line was produced by transfection of UDG expression vector in UDG^−/− cells to restore UDG activity.
Tumor cells (500-2000/dish) were plated and treated with pemetrexed (0-400 nM), 5-fluorouracil (0-20 μM), temozolomide (0-1500 μM), or cisplatin (0-40 μM). After 7 days, surviving colonies were stained with methylene blue for 30 min at room temperature and the colonies containing more than 50 cells were counted to generate survival curves.

[2] = system: AP sites in DNA of H460 cells; assay: AP site assay (ARP), H460 cells; type: cell-based, human; conditions: pemetrexed 0-400 nM, MX 6 mM, 24 hrs
Description: (§1) The number of AP sites was measured using ARP (aldehyde reactive probe) reagent. The assay was performed as previously described. Briefly, cells (2×10^6) were collected after drug treatment and DNA was extracted. DNA (10 μg) was incubated with 15 μl of 1 mM ARP (Dojindo Laboratories, Kumamoto, Japan), and then precipitated and washed with ice-cold ethanol. The ARP-labeled DNA was then heat-denatured at 100° C. for 5 min, quickly chilled on ice and mixed with an equal volume of 2 M ammonium acetate. The DNA was then immobilized on a BA-S 85 nitrocellulose membrane (Schleicher and Schuell, Dassel, Germany) using a minifold II vacuum filter device (Schleicher and Schuell, Dassel, Germany). The membrane was incubated with 0.25% BSA-PBS containing streptavidin-conjugated horseradish peroxidase (BioGenex, SanRamon, Calif.) at room temperature for 40 min with gentle shaking. ARP-labeled AP sites were visualized by chemiluminescence (Amersham Corp, Piscataway, N.J.) followed by quantitative densitometry using NIH Image J software.

[3] = system: H1299/PR-1 cells; assay: Colony survival assay, H1299/PR-1 pemetrexed-resistant subline; type: cell-based, human; conditions: PR-1 vs H1299 parental, colony survival
Description: (§2) For cells in suspension, colony survival was determined by crystal violet staining of colonies formed after 10-day exposure of 5×10^3 cells to pemetrexed in soft agar. For adherent cells, colony survival was determined by methylene blue staining of colonies formed after 10-day exposure of 100 cells to pemetrexed in 6-well culture dishes. Only colonies containing ≥50 cells were counted. Data points represent percent of colonies relative to untreated control averaged over 3 experiments.
(§3) H1299 cells were exposed to step-wise increasing concentrations of pemetrexed over a period of 4 months. UNG expression was monitored in the bulk population at 2, 8, 12 and 16 weeks prior to administration of the induction dosage and at 24 weeks in a population of bulk chronically exposed cells that had been without pemetrexed for 8 weeks. H1299 cells capable of growth in 50 nM pemetrexed selection pressure were subcloned by limiting dilution in 96 well plates. Independent sublines were designated H1299/PR-1 and H1299/PR-2.

[4] = system: AP sites in DNA of UDG+/+ cells; assay: AP site assay (ARP), UDG+/+ cells; type: cell-based, human; conditions: pemetrexed 0-400 nM, 24 hrs
Description: as §1

[5] = system: H1299/PR-2 cells; assay: Colony survival assay, H1299/PR-2 pemetrexed-resistant subline; type: cell-based, human; conditions: PR-2 vs H1299 parental
Description: as §2, §3

[6] = system: UDG+/+ cells; assay: Replication foci stained with CldU and IdU, UDG+/+ cells; type: cell-based, human; conditions: pemetrexed 25 nM, n=10 cells
Description: DNA replication sites were visualized by incorporation of chlorodeoxyuridine (CldU) and iododeoxyuridine (IdU) into DNA. UDG^−/− and UDG^+/+ cells were labeled with 100 μM CldU (ICN, Irvine, Calif.) or IdU (Sigma Chemical Co., St. Louis, Mo.) for 45 min at different time intervals. Cells were washed with PBS, fixed with cold 70% ethanol, and stored at 4° C. For antibody staining, the ethanol was removed, and 100% methanol was added for 5 min. Cells were washed twice with PBS and incubated with 1.5 M HCl for 30 min to denature the DNA. Cells were washed with PBS, permeabilized with 0.5% Tween 20 in PBS for 5 min, and then incubated in 5% BSA (Sigma Chemical Co.) and in PBS for 20 min to reduce nonspecific binding. Primary antibodies CldU (rat anti-BrdU; Accurate Chemical and Science Co., Westbury, N.Y.) and IdU (mouse anti-BrdU; BD Biosciences) were diluted in 1% BSA buffer, added to the slides, and incubated in a humid environment for 2 hrs. Slides were washed with PBS-Tween 20 and then in a high-salt buffer (200 mM NaCl, 0.2% Tween 20, and 0.2% NP-40 in PBS) for 15 min. The samples were incubated with secondary antibodies for 1 h. Finally, slides were washed with PBSTween 20, mounted with Vectashield antifade mounting medium (Vector Laboratories, Inc., Burlingame, Calif.), and stored at 4° C. […] Fluorescence density of CldU or IdU was quantified by NIH image J software.

[7] = system: H1975 wt tumors; assay: H1975 wt xenografts in NOD-SCID mice; type: in vivo
Description: (§4) Tumor cells in early passage (5×10^6) were injected into bilateral flanks of female NODSCID mice (6 weeks old). When tumor volumes reached 100 mm3, mice were divided into control (n=4) and treatment (n=6) groups. Mice bearing tumors were treated with pemetrexed (150 mg/kg) or 100 μl sterile PBS (control) by daily intraperitoneal injection (IP) for 5 consecutive days. Tumor measurements were taken every 2 days and response was quantified by tumor volume.

[8] = treatment of lung cancer; cited from earlier work
[9] = system: H1975 66 shUNG tumors; assay: H1975 66 shUNG xenografts in NOD-SCID mice; type: in vivo
Description: as §4

Nc1nc2[nH]cc(CCc3ccc(C(=O)N[C@@H](CCC(=O)O)C(=O)O)cc3)c2c(=O)[nH]1 [pemetrexed]
IC50 ([1]; Homo sapiens, DLD-1, UDG−/− cells, interpolated from dose-response survival curves, read-out: IC50 value for pemetrexed): 20 nM | sensitivity of UDG−/− cells relative to UDG+/+ cells ([1]; UDG−/− vs UDG+/+): 10 times | ARP-detected AP sites [2]: increased as the concentration of pemetrexed increased | relative resistance to pemetrexed compared to parental cells [3]: 25 fold | AP sites in DNA [4]: dose-dependent formation of AP sites | relative resistance to pemetrexed compared to parental cells [5]: 71 fold | ratio of IdU to CldU (fluorescence density) ([6]; 6-hr sample): 0.7±0.13 | ratio of IdU to CldU (fluorescence density) ([6]; 18-hr sample): 0.9±0.31 | tumors smaller than untreated controls ([7]; H1975 wild type tumors, day 20, pemetrexed 150 mg/kg IP x5): 37.8% | tumor quadrupling time ([7]; H1975 wt tumors, pemetrexed 150 mg/kg IP, 5 daily injections): 9.68 ± 0.31 days | response rate [8]: 30-40% | tumors smaller than untreated controls ([9]; H1975 66 shUNG tumors, day 20, pemetrexed 150 mg/kg IP x5): 55.6% | tumor quadrupling time ([9]; H1975 shUNG tumors, pemetrexed 150 mg/kg IP, 5 daily injections): 13.67 ± 0.28 days
